Our source for the GI50 and IC50 values is ChEMBL document CHEMBL1141779, “Sesterterpenoids, terretonins A-D, and an alkaloid, asterrelenin, from Aspergillus terreus” (J Nat Prod, 2005).

A word on the GI50: it is the concentration that inhibits growth by half. A high value points to less potent growth inhibition. A word on the IC50: it is the point on the concentration scale where inhibition reaches its midpoint. A high value points to weaker potency.

Some results are limits rather than exact numbers.

Experiment [1] can be described thus: Cytotoxicity against human Bre04 cells. The class given is functional.
The nature of experiment [2]: Cytotoxicity against human N04 cells. The class given is functional.
The target of another experiment is Maltase-glucoamylase (Homo sapiens, UniProt O43451). In words: Inhibition of maltase.
In experiment [3] the target is Sucrase-isomaltase, intestinal (Homo sapiens, UniProt P14410). In words: Inhibition of sucrase.
Experiment [4] in a line: Inhibition of alpha-amylase.
Experiment [5] is described as follows: Cytotoxicity against human Lu04 cells. The class given is functional.

Chain of Maltase-glucoamylase (O43451 whole entry): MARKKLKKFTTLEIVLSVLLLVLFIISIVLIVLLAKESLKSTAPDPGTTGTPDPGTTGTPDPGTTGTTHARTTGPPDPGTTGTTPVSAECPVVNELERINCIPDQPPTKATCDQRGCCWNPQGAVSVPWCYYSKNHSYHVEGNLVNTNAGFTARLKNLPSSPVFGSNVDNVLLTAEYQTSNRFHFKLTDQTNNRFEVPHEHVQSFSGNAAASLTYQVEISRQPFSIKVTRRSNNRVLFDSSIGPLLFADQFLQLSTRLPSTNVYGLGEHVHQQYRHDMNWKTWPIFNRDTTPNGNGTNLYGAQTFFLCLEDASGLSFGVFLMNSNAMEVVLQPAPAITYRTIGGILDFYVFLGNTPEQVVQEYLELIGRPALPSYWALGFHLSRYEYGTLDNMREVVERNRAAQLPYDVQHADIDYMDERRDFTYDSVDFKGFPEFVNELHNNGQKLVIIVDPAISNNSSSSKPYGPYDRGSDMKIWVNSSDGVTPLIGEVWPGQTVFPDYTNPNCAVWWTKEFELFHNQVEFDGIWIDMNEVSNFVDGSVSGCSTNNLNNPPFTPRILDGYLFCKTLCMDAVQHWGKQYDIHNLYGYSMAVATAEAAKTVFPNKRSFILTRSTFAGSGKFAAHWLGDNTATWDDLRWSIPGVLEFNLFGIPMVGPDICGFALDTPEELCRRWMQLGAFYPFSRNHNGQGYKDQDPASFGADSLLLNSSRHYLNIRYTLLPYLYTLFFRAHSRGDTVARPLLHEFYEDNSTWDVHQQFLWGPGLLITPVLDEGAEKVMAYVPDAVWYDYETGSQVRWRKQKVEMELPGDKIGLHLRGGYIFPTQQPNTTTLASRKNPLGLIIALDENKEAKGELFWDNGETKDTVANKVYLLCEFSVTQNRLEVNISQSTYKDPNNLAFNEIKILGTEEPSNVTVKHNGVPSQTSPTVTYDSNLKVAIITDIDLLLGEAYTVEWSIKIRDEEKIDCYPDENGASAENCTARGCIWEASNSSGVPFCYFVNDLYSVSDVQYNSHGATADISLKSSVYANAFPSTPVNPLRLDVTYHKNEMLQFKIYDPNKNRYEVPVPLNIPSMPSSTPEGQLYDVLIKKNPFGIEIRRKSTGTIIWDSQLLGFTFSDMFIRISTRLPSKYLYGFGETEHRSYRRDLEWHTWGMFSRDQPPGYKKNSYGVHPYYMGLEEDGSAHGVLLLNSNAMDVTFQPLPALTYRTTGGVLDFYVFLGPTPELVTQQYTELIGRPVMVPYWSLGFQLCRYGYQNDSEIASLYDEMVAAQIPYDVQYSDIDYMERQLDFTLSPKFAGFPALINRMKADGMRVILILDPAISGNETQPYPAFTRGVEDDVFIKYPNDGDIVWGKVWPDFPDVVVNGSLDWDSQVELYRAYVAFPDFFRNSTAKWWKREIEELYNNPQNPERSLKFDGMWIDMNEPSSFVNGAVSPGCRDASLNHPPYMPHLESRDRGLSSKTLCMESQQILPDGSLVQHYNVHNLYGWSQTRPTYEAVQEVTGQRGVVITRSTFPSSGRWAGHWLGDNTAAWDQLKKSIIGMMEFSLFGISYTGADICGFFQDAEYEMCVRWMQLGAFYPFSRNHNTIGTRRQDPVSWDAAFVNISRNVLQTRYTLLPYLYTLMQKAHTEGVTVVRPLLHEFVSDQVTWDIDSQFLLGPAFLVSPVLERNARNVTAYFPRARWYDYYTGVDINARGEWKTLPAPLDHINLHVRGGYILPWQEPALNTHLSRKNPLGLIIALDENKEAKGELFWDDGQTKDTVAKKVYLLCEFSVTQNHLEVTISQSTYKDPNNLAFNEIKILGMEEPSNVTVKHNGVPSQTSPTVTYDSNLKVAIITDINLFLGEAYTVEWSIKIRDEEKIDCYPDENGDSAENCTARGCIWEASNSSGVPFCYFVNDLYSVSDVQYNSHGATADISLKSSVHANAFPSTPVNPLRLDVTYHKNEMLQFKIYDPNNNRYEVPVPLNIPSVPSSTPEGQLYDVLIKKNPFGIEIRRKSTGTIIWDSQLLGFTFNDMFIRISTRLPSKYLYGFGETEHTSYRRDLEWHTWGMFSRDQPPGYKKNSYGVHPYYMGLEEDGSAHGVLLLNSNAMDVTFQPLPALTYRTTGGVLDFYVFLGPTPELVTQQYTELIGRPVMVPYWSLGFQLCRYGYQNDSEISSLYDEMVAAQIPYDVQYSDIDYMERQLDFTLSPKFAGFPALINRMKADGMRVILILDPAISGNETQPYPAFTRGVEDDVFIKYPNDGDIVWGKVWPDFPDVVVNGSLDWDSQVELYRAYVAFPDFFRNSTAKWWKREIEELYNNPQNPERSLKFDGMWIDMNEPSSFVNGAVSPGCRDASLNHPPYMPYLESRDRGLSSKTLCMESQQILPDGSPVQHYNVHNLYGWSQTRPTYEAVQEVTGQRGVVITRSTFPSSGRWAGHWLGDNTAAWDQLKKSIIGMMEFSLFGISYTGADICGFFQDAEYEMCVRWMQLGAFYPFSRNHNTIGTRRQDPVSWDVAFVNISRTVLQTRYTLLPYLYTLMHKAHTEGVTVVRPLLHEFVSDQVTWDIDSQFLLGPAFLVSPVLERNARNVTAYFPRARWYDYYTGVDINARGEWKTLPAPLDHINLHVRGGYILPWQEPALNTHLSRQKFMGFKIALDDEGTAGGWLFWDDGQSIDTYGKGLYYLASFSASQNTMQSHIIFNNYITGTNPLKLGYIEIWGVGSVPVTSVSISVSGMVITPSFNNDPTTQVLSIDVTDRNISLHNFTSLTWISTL
Chain of Sucrase-isomaltase, intestinal (P14410 2-1007 limits assumed): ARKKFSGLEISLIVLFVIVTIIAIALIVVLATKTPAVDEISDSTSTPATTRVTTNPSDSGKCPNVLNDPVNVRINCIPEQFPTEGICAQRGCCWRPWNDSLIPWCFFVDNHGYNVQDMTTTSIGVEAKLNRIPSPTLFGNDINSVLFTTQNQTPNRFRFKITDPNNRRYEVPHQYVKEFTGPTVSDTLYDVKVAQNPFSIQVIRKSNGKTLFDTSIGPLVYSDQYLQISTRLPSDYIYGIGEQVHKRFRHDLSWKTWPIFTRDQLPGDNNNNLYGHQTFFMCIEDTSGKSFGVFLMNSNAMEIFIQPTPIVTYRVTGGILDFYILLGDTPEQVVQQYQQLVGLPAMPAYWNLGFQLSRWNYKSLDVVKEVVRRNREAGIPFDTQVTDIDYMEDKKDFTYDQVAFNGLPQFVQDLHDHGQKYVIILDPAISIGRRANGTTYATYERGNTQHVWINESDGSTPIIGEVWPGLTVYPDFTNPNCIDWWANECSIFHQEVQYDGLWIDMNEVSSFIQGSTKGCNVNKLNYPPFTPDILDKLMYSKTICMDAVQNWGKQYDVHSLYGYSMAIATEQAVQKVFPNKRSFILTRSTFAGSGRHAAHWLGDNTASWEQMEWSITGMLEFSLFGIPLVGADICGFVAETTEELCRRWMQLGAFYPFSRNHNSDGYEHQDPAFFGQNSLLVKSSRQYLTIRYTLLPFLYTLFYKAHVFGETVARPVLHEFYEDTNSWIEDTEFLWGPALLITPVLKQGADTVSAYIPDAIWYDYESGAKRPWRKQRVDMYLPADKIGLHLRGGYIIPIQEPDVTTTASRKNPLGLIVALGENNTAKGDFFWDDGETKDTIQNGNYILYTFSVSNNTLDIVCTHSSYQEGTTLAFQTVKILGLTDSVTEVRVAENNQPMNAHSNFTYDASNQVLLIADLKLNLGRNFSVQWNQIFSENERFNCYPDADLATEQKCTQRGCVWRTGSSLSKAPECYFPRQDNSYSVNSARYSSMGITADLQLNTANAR
Chain of Sucrase-isomaltase, intestinal (P14410 1008-1827 limits assumed): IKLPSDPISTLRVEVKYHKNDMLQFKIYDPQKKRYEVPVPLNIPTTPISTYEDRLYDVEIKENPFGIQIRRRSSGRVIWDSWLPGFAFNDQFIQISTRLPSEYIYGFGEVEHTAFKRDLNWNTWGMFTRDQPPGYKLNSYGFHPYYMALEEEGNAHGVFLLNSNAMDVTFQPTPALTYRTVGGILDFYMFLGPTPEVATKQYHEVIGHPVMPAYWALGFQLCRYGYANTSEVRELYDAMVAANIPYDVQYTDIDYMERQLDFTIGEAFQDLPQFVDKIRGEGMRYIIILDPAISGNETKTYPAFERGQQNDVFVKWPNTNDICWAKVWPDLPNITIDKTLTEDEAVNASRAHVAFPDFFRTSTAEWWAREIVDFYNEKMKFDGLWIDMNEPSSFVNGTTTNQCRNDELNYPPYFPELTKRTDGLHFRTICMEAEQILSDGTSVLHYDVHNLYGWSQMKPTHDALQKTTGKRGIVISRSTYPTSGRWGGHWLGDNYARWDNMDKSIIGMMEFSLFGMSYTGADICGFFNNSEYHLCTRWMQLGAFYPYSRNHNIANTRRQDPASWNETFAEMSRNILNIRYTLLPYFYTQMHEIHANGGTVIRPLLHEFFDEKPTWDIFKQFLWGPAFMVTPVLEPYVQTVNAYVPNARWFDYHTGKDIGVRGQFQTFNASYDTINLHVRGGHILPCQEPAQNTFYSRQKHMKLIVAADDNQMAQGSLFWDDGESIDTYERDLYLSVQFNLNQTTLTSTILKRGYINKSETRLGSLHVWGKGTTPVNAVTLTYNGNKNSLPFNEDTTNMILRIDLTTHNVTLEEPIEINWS

For `C=C1C[C@]2(O)[C@@]3(C)CCC(=O)C(C)(C)C3=C(O)C(=O)[C@@]2(C)[C@@H]2C(=O)O[C@@](C)(C(=O)OC)C(=O)[C@@]12C` [TERRETONIN], the GI50 in experiment [1], in experiment [2] and in experiment [5] was greater than 100 µg/mL each time. Besides, the IC50 was greater than 205 µM at Maltase-glucoamylase, greater than 205 µM in experiment [3] and greater than 100 µg/mL in experiment [4].

Turning to `COc1cc(-c2cc3c(c(=O)o2)C[C@]2(O)[C@@]4(C)C(=O)C=CC(C)(C)[C@]4(O)CC[C@@]2(C)O3)cc2c1OCO2` [TERRITREM A], the GI50 in experiment [1], in experiment [2] and in experiment [5] was greater than 100 µg/mL in each case. In addition, the IC50 is greater than 196 µM against Maltase-glucoamylase, greater than 196 µM in experiment [3] and greater than 100 µg/mL in experiment [4].

Consider `C=C1C[C@H]2[C@@](C)(C(=O)C(O)=C3C(C)(C)C(=O)CC[C@@]32C)[C@@H]2C(=O)O[C@@](C)(C(=O)OC)C(=O)[C@@]12C` [TERRETONIN A], for which the concentration for 50% growth inhibition (GI50) in experiment [1], in experiment [2] and in experiment [5] was greater than 100 µg/mL each time. Moreover, the results for the IC50 (against Maltase-glucoamylase; in experiment [3]; in experiment [4]) were greater than 212 µM, greater than 212 µM and greater than 100 µg/mL, respectively.
